Experimental findings from US8959984B2, “Proteome-wide quantification of small molecule binding to cellular target proteins” (priority 2007, dated 2015) are described below.

Where “and” joins values, the source holds several entries; their conditions need not be identical. Equal values may be shown once. Read-outs that look alike come from different tables or passages of the source.

One assay addresses T1, EGFR (Homo sapiens, UniProt P00533).
T1 construct: endogenous in cells; host or cells: HeLa S3
Briefly: binding to AX14596 beads (HeLa lysate, SILAC MS).

The target of another assay is EphB4 (Homo sapiens, UniProt P54760). Briefly: binding to AX14596 beads (HeLa lysate, SILAC MS).
The target of a further assay is T2, MAP3K6 (Homo sapiens, UniProt O95382).
T2 construct: endogenous in cells; host or cells: HeLa S3
T2 sequence (O95382 1-1288): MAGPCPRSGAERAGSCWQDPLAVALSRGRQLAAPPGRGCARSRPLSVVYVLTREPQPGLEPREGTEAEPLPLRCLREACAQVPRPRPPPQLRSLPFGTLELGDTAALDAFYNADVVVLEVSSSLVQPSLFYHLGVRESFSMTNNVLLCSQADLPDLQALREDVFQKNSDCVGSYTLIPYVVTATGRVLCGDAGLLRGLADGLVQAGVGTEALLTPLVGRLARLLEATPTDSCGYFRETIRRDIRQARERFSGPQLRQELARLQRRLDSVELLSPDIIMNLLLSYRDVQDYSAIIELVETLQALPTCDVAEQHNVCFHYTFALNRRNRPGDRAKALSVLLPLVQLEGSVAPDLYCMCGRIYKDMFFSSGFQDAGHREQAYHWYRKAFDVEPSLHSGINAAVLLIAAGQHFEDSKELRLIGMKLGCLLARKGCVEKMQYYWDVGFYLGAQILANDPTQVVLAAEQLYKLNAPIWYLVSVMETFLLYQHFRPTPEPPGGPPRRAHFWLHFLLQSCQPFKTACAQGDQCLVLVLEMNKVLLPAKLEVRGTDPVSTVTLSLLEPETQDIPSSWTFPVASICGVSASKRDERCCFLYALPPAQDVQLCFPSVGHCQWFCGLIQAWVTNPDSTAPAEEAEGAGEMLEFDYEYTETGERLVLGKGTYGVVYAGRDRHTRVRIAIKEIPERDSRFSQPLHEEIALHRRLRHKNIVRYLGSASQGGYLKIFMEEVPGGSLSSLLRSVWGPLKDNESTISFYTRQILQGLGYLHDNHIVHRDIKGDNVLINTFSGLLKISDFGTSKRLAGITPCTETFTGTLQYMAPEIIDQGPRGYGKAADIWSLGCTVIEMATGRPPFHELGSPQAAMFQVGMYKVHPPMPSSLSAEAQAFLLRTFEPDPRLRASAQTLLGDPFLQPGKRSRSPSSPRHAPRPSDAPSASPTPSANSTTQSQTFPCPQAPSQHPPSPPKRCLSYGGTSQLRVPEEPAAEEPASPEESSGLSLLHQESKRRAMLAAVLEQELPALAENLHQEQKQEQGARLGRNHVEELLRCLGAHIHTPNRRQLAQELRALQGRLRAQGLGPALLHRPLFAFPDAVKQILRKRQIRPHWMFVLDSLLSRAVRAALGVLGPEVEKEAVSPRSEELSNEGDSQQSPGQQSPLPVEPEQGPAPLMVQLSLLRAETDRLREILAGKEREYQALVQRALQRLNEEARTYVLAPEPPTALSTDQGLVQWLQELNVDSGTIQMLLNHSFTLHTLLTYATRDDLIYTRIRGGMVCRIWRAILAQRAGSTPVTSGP
Briefly: binding to immobilized V16742 (IVA1/IVA2, HeLa lysate, MS).

The next assay has as its target RPL7A (Homo sapiens, UniProt P62424).
The target in assay [1] is p38a (MAPK14, IPI00002857) (Homo sapiens, UniProt Q16539). Briefly: gefitinib competition against AX14596 beads (HeLa lysate, SILAC MS). The assay is classed as binding.
Chain of p38a (MAPK14, IPI00002857) (Q16539 whole entry): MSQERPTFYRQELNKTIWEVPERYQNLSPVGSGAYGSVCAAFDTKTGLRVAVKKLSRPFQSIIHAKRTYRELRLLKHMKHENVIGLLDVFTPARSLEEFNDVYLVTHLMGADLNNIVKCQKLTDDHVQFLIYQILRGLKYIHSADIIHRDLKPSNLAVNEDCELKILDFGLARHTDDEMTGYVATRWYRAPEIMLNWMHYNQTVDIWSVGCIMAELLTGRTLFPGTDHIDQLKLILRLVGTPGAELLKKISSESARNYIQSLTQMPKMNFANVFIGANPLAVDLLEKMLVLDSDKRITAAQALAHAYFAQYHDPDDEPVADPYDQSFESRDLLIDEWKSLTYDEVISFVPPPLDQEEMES

T1 sequence (P00533 25-1210): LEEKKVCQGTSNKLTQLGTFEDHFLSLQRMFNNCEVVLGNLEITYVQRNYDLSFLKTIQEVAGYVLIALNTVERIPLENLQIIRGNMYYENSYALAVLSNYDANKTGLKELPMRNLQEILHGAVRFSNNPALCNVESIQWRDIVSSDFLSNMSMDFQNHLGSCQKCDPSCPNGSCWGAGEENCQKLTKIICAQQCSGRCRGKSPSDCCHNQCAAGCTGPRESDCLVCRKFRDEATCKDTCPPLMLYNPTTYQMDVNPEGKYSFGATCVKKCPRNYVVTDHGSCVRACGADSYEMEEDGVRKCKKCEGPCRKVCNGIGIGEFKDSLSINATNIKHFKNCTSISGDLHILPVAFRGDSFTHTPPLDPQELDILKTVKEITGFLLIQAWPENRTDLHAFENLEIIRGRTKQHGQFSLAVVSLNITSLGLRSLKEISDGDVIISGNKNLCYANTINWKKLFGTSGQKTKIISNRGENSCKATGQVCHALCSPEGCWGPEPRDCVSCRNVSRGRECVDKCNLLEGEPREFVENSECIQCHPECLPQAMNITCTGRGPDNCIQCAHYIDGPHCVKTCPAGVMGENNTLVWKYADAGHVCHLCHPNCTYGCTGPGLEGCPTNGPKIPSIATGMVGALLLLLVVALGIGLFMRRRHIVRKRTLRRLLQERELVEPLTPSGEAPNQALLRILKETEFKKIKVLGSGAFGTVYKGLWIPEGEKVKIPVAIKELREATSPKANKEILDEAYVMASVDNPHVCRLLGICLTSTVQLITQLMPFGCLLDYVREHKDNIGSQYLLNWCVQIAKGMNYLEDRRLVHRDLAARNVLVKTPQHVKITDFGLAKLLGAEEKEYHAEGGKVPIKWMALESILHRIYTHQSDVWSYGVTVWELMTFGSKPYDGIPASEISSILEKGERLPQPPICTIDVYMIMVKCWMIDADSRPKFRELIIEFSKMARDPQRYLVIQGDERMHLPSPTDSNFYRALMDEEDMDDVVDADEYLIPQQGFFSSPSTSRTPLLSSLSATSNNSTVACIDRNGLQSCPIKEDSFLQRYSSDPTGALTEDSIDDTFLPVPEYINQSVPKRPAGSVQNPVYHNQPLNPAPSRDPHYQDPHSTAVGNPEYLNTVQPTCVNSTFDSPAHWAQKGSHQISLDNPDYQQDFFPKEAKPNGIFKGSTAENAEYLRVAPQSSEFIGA
Chain of EphB4 (P54760 16-987): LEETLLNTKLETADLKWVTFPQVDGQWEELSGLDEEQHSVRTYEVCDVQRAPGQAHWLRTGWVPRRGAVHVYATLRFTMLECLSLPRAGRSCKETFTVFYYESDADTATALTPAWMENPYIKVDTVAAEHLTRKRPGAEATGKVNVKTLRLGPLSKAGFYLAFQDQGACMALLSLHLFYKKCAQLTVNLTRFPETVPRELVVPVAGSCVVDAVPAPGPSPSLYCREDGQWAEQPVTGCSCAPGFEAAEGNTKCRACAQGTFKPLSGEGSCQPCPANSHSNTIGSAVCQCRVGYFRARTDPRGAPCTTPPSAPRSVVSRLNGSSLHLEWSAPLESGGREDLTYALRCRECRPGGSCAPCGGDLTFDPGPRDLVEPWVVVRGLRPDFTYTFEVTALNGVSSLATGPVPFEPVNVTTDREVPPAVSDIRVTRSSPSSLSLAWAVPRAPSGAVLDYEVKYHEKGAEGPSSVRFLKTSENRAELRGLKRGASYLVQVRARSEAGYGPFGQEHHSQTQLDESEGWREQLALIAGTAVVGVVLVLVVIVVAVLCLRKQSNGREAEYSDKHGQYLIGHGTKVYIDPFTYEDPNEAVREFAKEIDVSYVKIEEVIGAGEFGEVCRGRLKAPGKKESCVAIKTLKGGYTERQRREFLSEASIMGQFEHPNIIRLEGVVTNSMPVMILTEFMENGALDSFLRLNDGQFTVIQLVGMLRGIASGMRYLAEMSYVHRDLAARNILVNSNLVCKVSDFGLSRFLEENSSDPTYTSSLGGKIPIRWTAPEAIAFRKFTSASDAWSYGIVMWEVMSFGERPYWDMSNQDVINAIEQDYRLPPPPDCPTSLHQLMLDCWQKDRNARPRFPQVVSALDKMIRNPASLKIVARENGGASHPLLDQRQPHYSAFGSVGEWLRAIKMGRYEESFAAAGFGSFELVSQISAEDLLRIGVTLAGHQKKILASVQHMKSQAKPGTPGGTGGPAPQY

Take `COc1cc2ncnc(Nc3ccc(F)c(Cl)c3)c2cc1OCCCN` [AX14596]: on EGFR, the inhibitory constant (Ki) (in general, a measure of affinity in units of concentration, obtained from inhibition or displacement) is 44 µM and 44.5 µM; the “r (3 mg/1 mg lysate)” value was determined as 2.65; the “r (5 h/2.5 h inc. time)” value turned out to be 0.90; the “rAVERAGE (2. inc/1. inc)” value is 0.31. Also, the “rAVERAGE (control/1. inc)” value on EGFR amounted to 0.03. For the same molecule, the “% BOUND” value at EGFR (bound to AX14596 beads) was 69%. Also, at EphB4, the Ki came to 242 µM, the “r (3 mg/1 mg lysate)” value is given as 2.65, the “r (5 h/2.5 h inc. time)” value was determined as 0.96 and the “rAVERAGE (2. inc/1. inc)” value is listed as 0.71. The “rAVERAGE (control/1. inc)” value on EphB4 is on record as 0.05. Moreover, at EphB4 (bound to AX14596 beads), the “% BOUND” value turned out to be 29%.
Turning to `CC(C)n1c(=O)ccc2cnc(Nc3ccc(OCCN)cc3)nc21` [V16742], the “Percent bound at various 16742 conc” value on MAP3K6 (Experiment 1, 8.74 μM 16742) is given as 3.57%; at MAP3K6 (Experiment 1, 52 μM 16742), 51.68%; on MAP3K6 (Experiment 2, 1.87 μM 16742), 2.67%; on MAP3K6 (Experiment 2, 8.74 μM 16742) it was 3.94%; on MAP3K6 (Experiment 2, 52 μM 16742) it was 13.37%. The Kd (commonly the constant that tells how readily two partners part at equilibrium) on MAP3K6 (Experiment 1, read-out: Kd) is 57.7 µM; on MAP3K6 (Experiment 2, read-out: Kd) it was 326 µM; on MAP3K6 (average of two experiments, read-out: Kd Avg), 192 µM.
As to `COc1cc2ncnc(Nc3ccc(F)c(Cl)c3)c2cc1OCCCN1CCOCC1` [gefitinib], at RPL7A, the “rAVERAGE (10 nM/0 nM Gef.)” value is 0.92, the “rAVERAGE (100 nM/0 nM Gef.)” value stood at 0.88, the “rAVERAGE (1000 nM/0 nM Gef.)” value is recorded as 0.59 and the “rAVERAGE (10000 nM/0 nM Gef.)” value turned out to be 0.79. Besides, in assay [1], the “rAVERAGE (10 nM/0 nM Gef.)” value is reported as 0.88, the “rAVERAGE (100 nM/0 nM Gef.)” value is listed as 1.04, the “rAVERAGE (1000 nM/0 nM Gef.)” value is on record as 0.92 and the “rAVERAGE (10000 nM/0 nM Gef.)” value is listed as 0.64.
